{"source": "patent US8247211B2", "about": "“Glycopeptide antibiotics” (American Cyanamid Company, priority 2001, dated 2012)", "key": {"Streptococcus sp.": {"tested_on": "Streptococcus sp.", "assay": "In vitro antibacterial evaluation: minimum inhibitory concentration (MIC), broth dilution method", "assay_type": "cell-based", "method_in_brief": "(§1)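 Susceptibility determined by NCCLS-recommended broth dilution (M7-A2), Muller-Hinton II […]. Concentration span 64-0.06 μg/mL, inoculum 5×10^5 CFU/mL. Isolates include strains resistant to methicillin, penicillin and/or vancomycin.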"}, "Enterococcus sp.": {"tested_on": "Enterococcus sp.", "assay": "In vitro antibacterial evaluation: minimum inhibitory concentration (MIC), broth dilution method", "assay_type": "cell-based", "method_in_brief": "as §1"}, "Escherichia coli": {"tested_on": "Escherichia coli", "assay": "In vitro antibacterial evaluation: minimum inhibitory concentration (MIC), broth dilution method", "assay_type": "cell-based", "method_in_brief": "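Inoculum: 5×10^5 CFU/mL. Range: 64-0.06 μg/mL. Medium: Muller-Hinton II […]; NCCLS M7-A2 broth dilution. Endpoint: lowest concentration inhibiting growth. Strains include methicillin-, penicillin- and/or vancomycin-resistant clinical isolates.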"}, "Staphylococcus sp.": {"tested_on": "Staphylococcus sp.", "assay": "In vitro antibacterial evaluation: minimum inhibitory concentration (MIC), broth dilution method", "assay_type": "cell-based", "details": "broth dilution, 18 hours at 35° C.", "method_in_brief": "as §1"}, "[1]": {"tested_on": "Staphylococcus aureus-SMITH (GC 4543)", "assay": "Acute lethal infection in mice (ED50)", "assay_type": "in vivo", "details": "female CD-1 mice, intraperitoneal challenge, intravenous dose 30 min. after infection, 7 day survival ratios", "method_in_brief": "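IP bacterial challenge, female CD-1 mice; inoculum lethal to untreated controls in 24-48 hr. IV dosing in saline or 5% dextrose 30 min post-infection, 5 mice/dose. ED50 from 7-day survival, 3 tests pooled.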"}, "[2]": {"details": "broth dilution, inoculum 5×10^5 CFU/mL, 18 hours at 35° C."}}, "data": [{"smiles": "Cc1ccc(Oc2ccc(C3OCC4OC(OC5C(CO)OC(Oc6ccc(CC7NC(=O)C(C(C)c8ccccc8)NC(=O)CNC(=O)C(CO)NC(=O)C(C(O)C8CNC(=N)N8C8OC(CO)C(O)C(O)C8O)NC(=O)C(C(O)C8CNC(=N)N8)NC7=O)cc6)C(O)C5O)C(O)C(O)C4O3)cc2)cc1", "note": "(stereo not drawn) [Example 174, Cyclo[glycyl-β-methylphenylalanyl-O-[4-O-[4,6-O-[4-(4-methylphenoxy)benzylidene]hexopyranosyl]hexopyranosyl]tyrosyl-3-(2-iminoimidazolidin-4-yl)seryl-3-(3-hexopyranosyl-2-iminoimidazolidin-4-yl)serylseryl]]", "values": [{"measurement": "MIC Streptococcus agalactiae (GC 4564)", "setting": "Streptococcus sp.; [2]", "result": "<0.06", "unit": "µg/mL"}, {"measurement": "MIC Streptococcus pneumoniae (ATCC 6301)", "setting": "Streptococcus sp.; [2]", "result": "<0.06", "unit": "µg/mL"}, {"measurement": "MIC Streptococcus pneumoniae (GC 1894)", "setting": "Streptococcus sp.; [2]", "result": "<0.06", "unit": "µg/mL"}, {"measurement": "MIC Streptococcus pneumoniae (GC 4565)", "setting": "Streptococcus sp.; [2]", "result": "<0.06", "unit": "µg/mL"}, {"measurement": "MIC Streptococcus pyogenes (GC 4563)", "setting": "Streptococcus sp.; [2]", "result": "<0.06", "unit": "µg/mL"}, {"measurement": "MIC Streptococcus pneumoniae (ATCC 6301)", "setting": "Streptococcus sp.; strain ATCC 6301", "result": "<0.06", "unit": "µg/mL"}, {"measurement": "MIC Streptococcus pneumoniae (GC 1894)", "setting": "Streptococcus sp.; strain GC 1894", "result": "<0.06", "unit": "µg/mL"}, {"measurement": "MIC Streptococcus pyogenes (GC 4563)", "setting": "Streptococcus sp.; strain GC 4563", "result": "<0.06", "unit": "µg/mL"}, {"measurement": "MIC Streptococcus agalactiae (GC 4564)", "setting": "Streptococcus sp.; strain GC 4564", "result": "<0.06", "unit": "µg/mL"}, {"measurement": "MIC Streptococcus pneumoniae (GC 4565)", "setting": "Streptococcus sp.; strain GC 4565", "result": "<0.06", "unit": "µg/mL"}, {"measurement": "MIC Enterococcus avium (GC 4558)", "setting": "Enterococcus sp.; [2]", "result": 2, "unit": "µg/mL"}, {"measurement": "MIC Enterococcus faecalis (ATCC 29212)", "setting": "Enterococcus sp.; [2]", "result": 2, "unit": "µg/mL"}, {"measurement": "MIC Enterococcus faecalis (GC 2242)", "setting": "Enterococcus sp.; [2]", "result": 2, "unit": "µg/mL"}, {"measurement": "MIC Enterococcus faecalis (GC 2691)", "setting": "Enterococcus sp.; [2]", "result": 2, "unit": "µg/mL"}, {"measurement": "MIC Enterococcus faecalis (GC 3059)", "setting": "Enterococcus sp.; [2]", "result": 2, "unit": "µg/mL"}, {"measurement": "MIC Enterococcus faecalis (GC 4552)", "setting": "Enterococcus sp.; [2]", "result": 1, "unit": "µg/mL"}, {"measurement": "MIC Enterococcus faecalis (GC 4553)", "setting": "Enterococcus sp.; [2]", "result": 1, "unit": "µg/mL"}, {"measurement": "MIC Enterococcus faecalis (GC 4554)", "setting": "Enterococcus sp.; [2]", "result": 1, "unit": "µg/mL"}, {"measurement": "MIC Enterococcus faecalis (GC 6189)", "setting": "Enterococcus sp.; [2]", "result": 2, "unit": "µg/mL"}, {"measurement": "MIC Enterococcus faecium (GC 2243)", "setting": "Enterococcus sp.; [2]", "result": 1, "unit": "µg/mL"}, {"measurement": "MIC Enterococcus faecium (GC 4556)", "setting": "Enterococcus sp.; [2]", "result": 1, "unit": "µg/mL"}, {"measurement": "MIC Enterococcus faecium (GC 4557)", "setting": "Enterococcus sp.; [2]", "result": 2, "unit": "µg/mL"}, {"measurement": "MIC Enterococcus faecalis (ATCC 29212)", "setting": "Enterococcus sp.; strain ATCC 29212", "result": 2, "unit": "µg/mL"}, {"measurement": "MIC Enterococcus faecalis (GC 2242)", "setting": "Enterococcus sp.; strain GC 2242", "result": 2, "unit": "µg/mL"}, {"measurement": "MIC Enterococcus faecium (GC 2243)", "setting": "Enterococcus sp.; strain GC 2243", "result": 1, "unit": "µg/mL"}, {"measurement": "MIC Enterococcus faecalis (GC 2691)", "setting": "Enterococcus sp.; strain GC 2691", "result": 2, "unit": "µg/mL"}, {"measurement": "MIC Enterococcus faecalis (GC 3059)", "setting": "Enterococcus sp.; strain GC 3059", "result": 2, "unit": "µg/mL"}, {"measurement": "MIC Enterococcus faecalis (GC 4552)", "setting": "Enterococcus sp.; strain GC 4552", "result": 1, "unit": "µg/mL"}, {"measurement": "MIC Enterococcus faecalis (GC 4553)", "setting": "Enterococcus sp.; strain GC 4553", "result": 1, "unit": "µg/mL"}, {"measurement": "MIC Enterococcus faecalis (GC 4554)", "setting": "Enterococcus sp.; strain GC 4554", "result": 1, "unit": "µg/mL"}, {"measurement": "MIC Enterococcus faecium (GC 4556)", "setting": "Enterococcus sp.; strain GC 4556", "result": 1, "unit": "µg/mL"}, {"measurement": "MIC Enterococcus faecium (GC 4557)", "setting": "Enterococcus sp.; strain GC 4557", "result": 2, "unit": "µg/mL"}, {"measurement": "MIC Enterococcus avium (GC 4558)", "setting": "Enterococcus sp.; strain GC 4558", "result": 2, "unit": "µg/mL"}, {"measurement": "MIC Enterococcus faecalis (GC 6189)", "setting": "Enterococcus sp.; strain GC 6189", "result": 2, "unit": "µg/mL"}, {"measurement": "MIC Escherichia coli (ATCC 25922)", "setting": "Escherichia coli; strain ATCC 25922", "result": ">64", "unit": "µg/mL"}, {"measurement": "MIC Escherichia coli (GC 4559)", "setting": "Escherichia coli; strain GC 4559", "result": ">64", "unit": "µg/mL"}, {"measurement": "MIC Escherichi coli (GC 4560)", "setting": "Escherichia coli; strain GC 4560", "result": 4, "unit": "µg/mL"}, {"measurement": "MIC Coagulase Negative Staphylococcus (GC 4547)", "setting": "Staphylococcus sp.; 5×10^5 CFU/mL", "result": 2, "unit": "µg/mL"}, {"measurement": "MIC Coagulase Negative Staphylococcus (GC 4548)", "setting": "Staphylococcus sp.; 5×10^5 CFU/mL", "result": 0.5, "unit": "µg/mL"}, {"measurement": "MIC Coagulase Negative Staphylococcus (GC 4549)", "setting": "Staphylococcus sp.; 5×10^5 CFU/mL", "result": 1, "unit": "µg/mL"}, {"measurement": "MIC Coagulase Negative Staphylococcus (GC 4551)", "setting": "Staphylococcus sp.; 5×10^5 CFU/mL", "result": 1, "unit": "µg/mL"}, {"measurement": "MIC Coagulase Negative Staphylococcus (GC 6257)", "setting": "Staphylococcus sp.; 5×10^5 CFU/mL", "result": 0.5, "unit": "µg/mL"}, {"measurement": "MIC Staphylococcus aureus (ATCC 29213)", "setting": "Staphylococcus sp.; 5×10^5 CFU/mL", "result": 2, "unit": "µg/mL"}, {"measurement": "MIC Staphylococcus aureus (GC 1131)", "setting": "Staphylococcus sp.; 5×10^5 CFU/mL", "result": 1, "unit": "µg/mL"}, {"measurement": "MIC Staphylococcus aureus (GC 3051)", "setting": "Staphylococcus sp.; 5×10^5 CFU/mL", "result": 2, "unit": "µg/mL"}, {"measurement": "MIC Staphylococcus aureus (GC 3053)", "setting": "Staphylococcus sp.; 5×10^5 CFU/mL", "result": 2, "unit": "µg/mL"}, {"measurement": "MIC Staphylococcus aureus (GC 4541)", "setting": "Staphylococcus sp.; 5×10^5 CFU/mL", "result": 2, "unit": "µg/mL"}, {"measurement": "MIC Staphylococcus aureus (GC 4542)", "setting": "Staphylococcus sp.; 5×10^5 CFU/mL", "result": 2, "unit": "µg/mL"}, {"measurement": "MIC Staphylococcus aureus (GC 4544)", "setting": "Staphylococcus sp.; 5×10^5 CFU/mL", "result": 1, "unit": "µg/mL"}, {"measurement": "MIC Staphylococcus aureus (GC 4545)", "setting": "Staphylococcus sp.; 5×10^5 CFU/mL", "result": 1, "unit": "µg/mL"}, {"measurement": "MIC Staphylococcus aureus-SMITH (GC 4543)", "setting": "Staphylococcus sp.; 5×10^5 CFU/mL", "result": 1, "unit": "µg/mL"}, {"measurement": "MIC Staphylococcus haemolyticus (GC 4546)", "setting": "Staphylococcus sp.; 5×10^5 CFU/mL", "result": 2, "unit": "µg/mL"}, {"measurement": "MIC Staphylococcus aureus (ATCC 29213)", "setting": "Staphylococcus sp.; strain ATCC 29213", "result": 2, "unit": "µg/mL"}, {"measurement": "MIC Staphylococcus aureus (GC 1131)", "setting": "Staphylococcus sp.; strain GC 1131", "result": 1, "unit": "µg/mL"}, {"measurement": "MIC Staphylococcus aureus (GC 3051)", "setting": "Staphylococcus sp.; strain GC 3051", "result": 2, "unit": "µg/mL"}, {"measurement": "MIC Staphylococcus aureus (GC 3053)", "setting": "Staphylococcus sp.; strain GC 3053", "result": 2, "unit": "µg/mL"}, {"measurement": "MIC Staphylococcus aureus (GC 4541)", "setting": "Staphylococcus sp.; strain GC 4541", "result": 2, "unit": "µg/mL"}, {"measurement": "MIC Staphylococcus aureus (GC 4542)", "setting": "Staphylococcus sp.; strain GC 4542", "result": 2, "unit": "µg/mL"}, {"measurement": "MIC Staphylococcus aureus (GC 4544)", "setting": "Staphylococcus sp.; strain GC 4544", "result": 1, "unit": "µg/mL"}, {"measurement": "MIC Staphylococcus aureus (GC 4545)", "setting": "Staphylococcus sp.; strain GC 4545", "result": 1, "unit": "µg/mL"}, {"measurement": "median effective dose (ED50), Staphylococcus aureus-SMITH (GC 4543)", "setting": "[1]", "result": 0.08, "unit": "mg/kg"}]}]}
